Experimental data as given in US20220241263A1, “PD-1 AXIS BINDING ANTAGONIST TO TREAT CANCER WITH GENETIC MUTATIONS IN SPECIFIC GENES” (Ares Trading S.A., priority 2019, published 2022).
Like-named read-outs stand apart in the source and are kept apart here.

Columns and labels:
[1] = test system: patients with advanced RCC (aRCC); assay: Phase 3 clinical trial of avelumab in combination with axitinib versus sunitinib (NCT02684006); format: in vivo, human
Description: Patients will be stratified according to ECOG performance status (0 versus 1) and LDH (>1.5 ULN vs. ≤1.5 ULN). In arm A (avelumab in combination with axitinib), avelumab will be given as a 1 hour intravenous infusion (IV) every 2 weeks in a 6-week cycle. Axitinib will be given orally (PO) twice daily (BID), with or without food, on a continuous dosing schedule.
Axitinib treatment may be adjusted by dosing interruption with or without dose reduction. Intrapatient axitinib dose escalation may occur if the intrapatient escalation criteria are met.
Study Treatment: Axitinib will be given orally twice daily PO on a continuous daily dosing schedule. Avelumab will be given as a 1 hour intravenous infusion every 2 weeks in a 6-week cycle.
Tumor Assessments: Anti-tumor activity will be assessed by radiological tumor assessments and will be based on RECIST guidelines version 1.1 for primary and secondary endpoints and on immune-related RECIST (irRECIST) guidelines for exploratory endpoints. Tumor assessments will be performed every 6 weeks (Q6W) up to 1 year from first dose therapy; thereafter, tumor assessments will be performed every 2 cycles. […]

[2] = test system: patients with advanced renal cell carcinoma; assay: CD8 immunohistochemistry study: PFS by number of CD8+ cells at the invasive margin in the phase 3 study; format: in vivo, human
Description: CD8 expression was assessed by immunohistochemistry using clone C8/144B and reported in terms of the number of CD8+ cells in relation to the total number of […] or at the invasive margin, with the median value as the cut point.

[3] = test system: patients with advanced renal cell carcinoma
Description: Tumor samples were collected from patients in Example 2 and were subject to whole exome sequencing to identify genetic mutations. Software tools BWA and a combination of MuTect, Vardict, Picard, and other vendor tools were used.
The Cox proportional hazards (PH) regression model was used to assess the dependence of progression-free survival (PFS) on mutational status of each gene. In addition, multivariate analysis was also carried out adjusting for age, sex and tumor mutation burden. […] Genes were filtered based on the following criteria: • A. Mutated at 5% or more in the B9991003 cohort • B. Interaction term P-value<0.05 in both model (1) and model (2), testing for treatment specific differences of the mutations on survival outcome. • C.

[4] = test system: patients with advanced renal cell carcinoma; remark: listed apart in the source
Description: Transcript levels were quantitated by the Personalis ACE Cancer Transciptome Analysis pipeline which uses STAR version 2.4.2a-p1 to align reads to the NCBI hs37d5 annotation 105 reference genome and produces Transcripts Per Million (TPM) values for each gene. TPM values were log2 transformed for further analysis.
Weighted Gene Co-Expression Network Analysis (WGCNA) was used to find co-expressed modules in the 720 baseline transcriptomic samples. […] The soft power of 6 was chosen based on goodness of fit to a scale-free network. A signed WGCNA network was constructed in R^37 with mergeCutHeight set to 0.25 and reassignThreshold set to 0. After removing non-coding genes and modules with size <10, 25 modules were identified. Gene signature scores were computed from the average expression of genes in a module. Univariate Cox Proportional Hazards (Cox PH) model was used to assess the dependence of PFS on each gene signature, which was categorized into high vs low groups according to median signature score. Multivariate analysis was also carried out adjusting for age and sex. Modules were annotated through identifying top enriched gene sets via hypergeometric tests using public gene set collections including the MSigDB Hallmark, GO Biological Process and LM22.
To assess the robustness of identified gene modules, next was carried out a consensus WGCNA analysis. […] The soft power of 6 was chosen based on goodness of fit to a scale-free network. 720 baseline data were randomly subsampled down to 80% of samples for 1,000 times. With each subsampled dataset, we constructed a co-expression network using the WGCNA procedure as described above. An adjacency matrix was constructed by counting the frequencies two genes were clustered into the same network module. A consensus network was then constructed using the new adjacency matrix via the standard WGCNA approach. Edges were then filtered by adjacency measure of 0.8. Modules with size <10 were removed. Consensus WGCNA identified 23 modules. Hypergeometric tests were then carried out to annotate modules as described above.
To refine the 306-gene immune response module, we selected genes annotated for immune-related functionality and had univariate Cox PH p-value <0.01 in the combination arm.

[5] = in vivo; cited from earlier work
[6] = patients with CDL163L1 mutation
[7] = patients with CDL163L1 wild type
[8] = patients with LOC728763 mutation
[9] = patients with LOC728763 wild type
[10] = patients with SPATA31C2 mutation
[11] = patients with SPATA31C2 wild type

CCN(CC)CCNC(=O)c1c(C)[nH]c(/C=C2\C(=O)Nc3ccc(F)cc32)c1C [sunitinib]
patients had died ([1]; PD-L1-positive tumors, median follow-up for overall survival 11.6 and 10.7 months): 44 patients
objective response rate ([1]; patients with PD-L1-positive tumors): 25.5%
median PFS ([2]; high numbers of CD8+ cells at the invasive margin): 7.1 months
median PFS ([2]; low numbers of CD8+ cells): 11.1 months
HR for PFS, high vs low numbers of CD8+ cells at the invasive margin ([2]; within treatment arm): 1.42
Rate of PFS at 15 months ([3]; patients with ABCA1 mutation): 25%
Rate of PFS at 15 months ([3]; patients with ABCA1 wild type): 25%
Rate of PFS at 20 months ([3]; patients with ABCA1 wild type): 25%
Rate of PFS at 15 months ([3]; patients with ARVCF mutation): 43%
Rate of PFS at 20 months ([3]; patients with ARVCF mutation): 39%
Rate of PFS at 15 months ([3]; patients with ARVCF wild type): 22%
Rate of PFS at 20 months ([3]; patients with ARVCF wild type): 22%
Rate of PFS at 15 months [3, 6]: 15%
Rate of PFS at 20 months [3, 6]: 15%
Rate of PFS at 15 months [3, 7]: 25%
Rate of PFS at 20 months [3, 7]: 25%
Rate of PFS at 15 months ([3]; patients with DNMT1 mutation): 0%
Rate of PFS at 20 months ([3]; patients with DNMT1 mutation): 0%
Rate of PFS at 15 months ([3]; patients with DNMT1 wild type): 25%
Rate of PFS at 20 months ([3]; patients with DNMT1 wild type): 25%
Rate of PFS at 15 months ([3]; patients with FOXO1 mutation): 10%
Rate of PFS at 20 months ([3]; patients with FOXO1 mutation): 10%
Rate of PFS at 15 months ([3]; patients with FOXO1 wild type): 25%
Rate of PFS at 20 months ([3]; patients with FOXO1 wild type): 25%
Rate of PFS at 15 months ([3]; patients with IL16 mutation): 25%
Rate of PFS at 20 months ([3]; patients with IL16 mutation): 25%
Rate of PFS at 15 months ([3]; patients with IL16 wild type): 23%
Rate of PFS at 20 months ([3]; patients with IL16 wild type): 23%
Rate of PFS at 15 months [3, 8]: 25%
Rate of PFS at 20 months [3, 8]: 25%
Rate of PFS at 15 months [3, 9]: 23%
Rate of PFS at 20 months [3, 9]: 23%
Rate of PFS at 15 months ([3]; patients with MCR1 mutation): 30%
Rate of PFS at 15 months ([3]; patients with MCR1 wild type): 30%
Rate of PFS at 20 months ([3]; patients with MCR1 wild type): 30%
Rate of PFS at 15 months ([3]; patients with MYH7B mutation): 10%
Rate of PFS at 15 months ([3]; patients with MYH7B wild type): 25%
Rate of PFS at 20 months ([3]; patients with MYH7B wild type): 25%
Rate of PFS at 15 months ([3]; patients with PTEN mutation): 20%
Rate of PFS at 15 months ([3]; patients with PTEN wild type): 25%
Rate of PFS at 20 months ([3]; patients with PTEN wild type): 25%
Rate of PFS at 15 months [3, 10]: 25%
Rate of PFS at 20 months [3, 10]: 25%
Rate of PFS at 15 months [3, 11]: 23%
Rate of PFS at 20 months [3, 11]: 23%
Rate of PFS at 15 months ([3]; patients with STAB2 mutation): 30%
Rate of PFS at 20 months ([3]; patients with STAB2 mutation): 30%
Rate of PFS at 15 months ([3]; patients with STAB2 wild type): 25%
Rate of PFS at 20 months ([3]; patients with STAB2 wild type): 25%
median PFS ([4]; greater than median expression of JAVELIN Renal 101 Immuno Signature): 8.3 months
median PFS ([4]; less than median expression of JAVELIN Renal 101 Immuno Signature): 9.0 months
HR for PFS by tumor mutational burden (TMB) ([4]; within treatment arm): 0.79
HR for PFS, high expression of IMmotion 150 angiogenesis signature ([4]; within treatment arm): 0.64
HR for PFS, high vs low JAVELIN Renal 101 Angiogenesis Signature ([4]; within treatment arm): 0.56
HR for PFS, high vs low JAVELIN Renal 101 Immuno Signature ([4]; within treatment arm): 0.98

avelumab: an anti-PD-L1 IgG1 monoclonal antibody
half-life [5]: 72 to 120 h
